The conditions of series [1]: in vivo; cited from earlier work.
The conditions of series [2]: cited from earlier work.
In series [3] the test system is CYP2E1, CYP3A, CYP2C8, CYP2C19. The conditions noted are these: cited from earlier work.
For a further series, the target named is P-gp (Homo sapiens, UniProt P08183). The conditions noted are these: cited from earlier work.
Series [4] relates to refractory and/or recurrent rhabdomyosarcoma. It counts as in vivo, human. The conditions noted are these: dose escalation phase; orally 3 times weekly with vinorelbine 25 mg/m2 IV day 1, 8, 15 of 21 day cycles. As to the method:
Methods: This is an investigator initiated Phase 1 single center, open-label, dose escalation/expansion clinical trial. A modified intent to treat approach is used for efficacy analysis for a target accrual of 20 subjects in the dose expansion cohort. Eligibility criteria include subjects >/=18 years old (yo) for the phase 1 dose escalation cohort and >/=12 years old for the phase 1 dose expansion cohort with a diagnosis of R/R RMS. Mocetinostat 40 mg, 70 mg or 90 mg was taken orally 3 times weekly with vinorelbine 25 mg/m2 IV on day 1,8, and 15 in 21 day cycles. PEG-filgrastim or biosimilar was added if subject experienced grade 3/4 neutropenia in a prior cycle. The maximum tolerated dose of mocetinostat in the dose escalation phase was 40 mg, which was selected as the dose for expansion cohort. Subjects were treated until disease progression by RECIST 1.1 or unacceptable toxicity.

Another series deals with CYP2C9 (Homo sapiens, UniProt P11712). The conditions noted are these: cited from earlier work.
Chain of CYP2C9 (P11712 whole entry): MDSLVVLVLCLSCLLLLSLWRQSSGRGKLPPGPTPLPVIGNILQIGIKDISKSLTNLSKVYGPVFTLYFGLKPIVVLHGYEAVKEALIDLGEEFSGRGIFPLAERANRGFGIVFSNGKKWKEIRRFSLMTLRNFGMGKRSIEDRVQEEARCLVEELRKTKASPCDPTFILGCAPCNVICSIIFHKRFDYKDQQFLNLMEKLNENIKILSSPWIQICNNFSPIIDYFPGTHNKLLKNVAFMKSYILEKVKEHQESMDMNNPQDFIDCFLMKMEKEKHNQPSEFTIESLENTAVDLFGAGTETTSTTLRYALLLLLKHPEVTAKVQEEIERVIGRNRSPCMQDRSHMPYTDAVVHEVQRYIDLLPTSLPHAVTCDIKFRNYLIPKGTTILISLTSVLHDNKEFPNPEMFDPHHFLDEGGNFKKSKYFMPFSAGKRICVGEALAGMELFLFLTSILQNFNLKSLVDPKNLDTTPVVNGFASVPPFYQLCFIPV
The conditions of series [5]: human, in vivo; cited from earlier work.
Series [6] relates to Rhabdomyosarcoma cell lines. Description: IC50 for mocetinostat across individual cell lines from different sarcoma subtypes (FIG. 1). It counts as cell-based.
Series [7] has as its system follicular lymphoma and diffuse large B cell lymphoma. The conditions noted are these: cited from earlier work.
A further series concerns solid tumors. The conditions noted are these: three times per week, with gemcitabine; cited from earlier work.
A further series deals with advanced solid tumors. The conditions noted are these: cited from earlier work.
The mark [8] stands for this setting: orally three times per week for 2 of every 3 weeks.

Consider two molecules from US20240390374A1, “MOCETINOSTAT IN COMBINATION WITH CHEMOTHERAPY TO TREAT RHABDOMYOSARCOMA” (The Regents of the University of California, priority 2021, published 2024).

One may read the IC50 as the concentration that gives 50% inhibition. Read a low IC50 as greater potency in that assay.

Chain of P-gp (P08183 whole entry): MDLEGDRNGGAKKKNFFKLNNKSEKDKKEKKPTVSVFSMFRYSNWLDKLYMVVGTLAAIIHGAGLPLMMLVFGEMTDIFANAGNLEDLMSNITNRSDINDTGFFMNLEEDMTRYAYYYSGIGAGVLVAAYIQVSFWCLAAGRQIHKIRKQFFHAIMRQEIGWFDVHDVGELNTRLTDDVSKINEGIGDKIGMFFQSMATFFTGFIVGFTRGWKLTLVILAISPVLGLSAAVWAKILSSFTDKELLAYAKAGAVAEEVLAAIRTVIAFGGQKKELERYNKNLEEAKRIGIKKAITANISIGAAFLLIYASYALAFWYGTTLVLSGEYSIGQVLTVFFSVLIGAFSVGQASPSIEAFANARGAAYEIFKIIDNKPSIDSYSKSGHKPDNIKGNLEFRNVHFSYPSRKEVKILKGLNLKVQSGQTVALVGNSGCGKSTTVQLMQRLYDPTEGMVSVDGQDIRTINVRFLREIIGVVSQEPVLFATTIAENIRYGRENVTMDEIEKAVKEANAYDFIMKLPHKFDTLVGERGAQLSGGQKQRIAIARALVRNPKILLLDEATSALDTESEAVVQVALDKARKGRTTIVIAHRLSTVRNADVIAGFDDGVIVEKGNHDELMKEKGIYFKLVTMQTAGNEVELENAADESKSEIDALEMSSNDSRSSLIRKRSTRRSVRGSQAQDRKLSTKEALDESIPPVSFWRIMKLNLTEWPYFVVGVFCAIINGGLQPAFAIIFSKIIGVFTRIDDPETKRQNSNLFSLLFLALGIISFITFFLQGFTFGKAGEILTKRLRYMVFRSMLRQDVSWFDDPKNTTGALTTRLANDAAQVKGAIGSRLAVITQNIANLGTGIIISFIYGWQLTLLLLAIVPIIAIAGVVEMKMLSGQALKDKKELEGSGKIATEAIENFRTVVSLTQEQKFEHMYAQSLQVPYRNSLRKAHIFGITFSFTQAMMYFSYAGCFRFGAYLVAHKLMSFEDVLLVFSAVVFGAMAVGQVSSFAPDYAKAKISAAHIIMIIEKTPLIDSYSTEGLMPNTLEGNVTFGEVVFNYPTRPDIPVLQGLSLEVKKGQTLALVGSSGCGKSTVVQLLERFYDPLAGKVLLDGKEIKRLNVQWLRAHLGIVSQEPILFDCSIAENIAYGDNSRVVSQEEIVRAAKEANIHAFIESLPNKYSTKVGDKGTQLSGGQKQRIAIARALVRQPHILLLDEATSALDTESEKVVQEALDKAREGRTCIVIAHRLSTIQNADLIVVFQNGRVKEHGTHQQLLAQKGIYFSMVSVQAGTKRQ

Take `CCC1=C[C@@H]2CN(C1)Cc1c([nH]c3ccccc13)[C@@](C(=O)OC)(c1cc3c(cc1OC)N(C)[C@H]1[C@@](O)(C(=O)OC)[C@H](OC(C)=O)[C@]4(CC)C=CCN5CC[C@]31[C@@H]54)C2` [vinorelbine, methyl (1R,9R,10S,11R,12R,19R)-11-acetyloxy-12-ethyl-4-[(12S,14R)-16-ethyl-12-methoxycarbonyl-1,10-diazatetracyclo[12.3.1.03,11.04,9]octadeca-3(11),4,6,8,15-pentaen-12-yl]-10-hydroxy-5-methoxy-8-methyl-8,16-diazapentacyclo[10.6.1.01,9.02,7.016,19]nonadeca-2,4,6,13-tetraene-10 carboxylate]: in series [1], the “grade II-IV nausea and vomiting” value is less than 10%; the “grade III-IV neurotoxicity” value was “rare”. Moreover, the “stability of unopened vials” value in [2] (at temperatures up to 25° C. (77° F.)) is recorded as “up to 72 hours”. For the same molecule, the “time diluted vinorelbine may be used” value in series [2] (normal room light, polypropylene syringes or polyvinyl chloride bags at 5-30° C.) was “up to 24 hours”.
Take `Nc1ccccc1NC(=O)c1ccc(CNc2nccc(-c3cccnc3)n2)cc1` [mocetinostat]: the metabolizing enzymes result in series [3] is “metabolized by CYP2E1 and CYP3A and possibly by CYP2C8 and CYP2C19”. The P-gp interaction entry at P-gp is “a substrate and an inhibitor of P-gp”. Besides, in series [4], the “maximum tolerated dose of mocetinostat” value was found to be 40 mg. Moreover, the CYP2C9 inhibition entry on CYP2C9 is “strong CYP2C9 inhibitor”. In addition, in series [5], the Half-life of elimination entry is “about 10 hours” and the “accumulation with repeated dosing” value is reported as “little to no accumulation”. Also, the IC50 in series [6] was less than 100 nM. Moreover, the “patients with pericardial events considered related to mocetinostat” value in series [7] (5 events: pericardial effusion, pericarditis, cardiac tamponade) is “four”. For the same molecule, in series [7] (70-110 mg three times a week), the “Grade ≥3 treatment-related fatigue” value was 23.6%, the “Grade ≥3 treatment-related neutropenia” value is given as 15.3% and the “Grade ≥3 treatment-related thrombocytopenia” value was 12.5%. Moreover, in series [7] (72 patients, starting doses 70-110 mg three times a week, 4 week cycles), the “patients with Grade ≥3 treatment-related AEs” value is 56.9%. Further, the MTD/RP2D of mocetinostat with solid tumors is on record as 90 mg. In addition, the “patients with dose limiting toxicities (DLTs)” value in the series with advanced solid tumors (at the 45 mg/m2/day dose) is given as 27%. Besides, in the series on advanced solid tumors (effect of low pH beverages), the PK interpatient variability result is recorded as “interpatient variability which improved when mocetinostat was coadministered with low pH beverages”. Further, in the series with advanced solid tumors (human, in vivo), the “hematologic AEs” value is “no hematologic AEs”. For the same molecule, in the series with advanced solid tumors (setting [8]), the “MTD/RP2D as equivalent fixed dose” value is “about 90 mg/day” and the “maximum tolerated dose (MTD)/recommended phase II dose (RP2D)” value is on record as 45 mg/m2/day.
